The results in this text go back to US20220204489A1, “ARYLSULFONYLTHIOPHENECARBOXAMIDES AND ARYLSULFONYLFURANCARBOXAMIDES AS Kv3 POTASSIUM CHANNEL ACTIVATORS” (H. Lundbeck A/S, priority 2019, published 2022).

SMILES strings stand for the structures.

The target in the experiment is T1, hKv3.1b (Homo sapiens, UniProt P48547).
T1 construct: expressed in transfected cells
T1 sequence (P48547 1-585 isoform P48547-2): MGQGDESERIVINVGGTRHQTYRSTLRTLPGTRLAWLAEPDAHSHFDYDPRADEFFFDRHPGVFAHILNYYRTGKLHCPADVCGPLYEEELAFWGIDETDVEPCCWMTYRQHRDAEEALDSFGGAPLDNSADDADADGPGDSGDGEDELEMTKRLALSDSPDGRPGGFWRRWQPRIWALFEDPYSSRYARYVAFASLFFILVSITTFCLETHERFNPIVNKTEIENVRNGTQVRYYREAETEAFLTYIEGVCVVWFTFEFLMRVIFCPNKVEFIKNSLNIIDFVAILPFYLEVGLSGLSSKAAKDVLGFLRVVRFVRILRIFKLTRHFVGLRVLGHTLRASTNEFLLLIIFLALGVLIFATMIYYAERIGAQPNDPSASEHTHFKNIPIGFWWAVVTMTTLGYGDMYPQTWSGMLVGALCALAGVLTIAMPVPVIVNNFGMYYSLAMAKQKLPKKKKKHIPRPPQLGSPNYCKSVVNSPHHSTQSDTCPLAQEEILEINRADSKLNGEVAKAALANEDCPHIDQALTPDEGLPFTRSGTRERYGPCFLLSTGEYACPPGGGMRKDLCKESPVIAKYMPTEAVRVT
The experiment in a line: QPatch automated whole-cell patch-clamp, shift of voltage threshold for channel activation. It counts as cell-based. The conditions noted are these: HEK-293 cells stably expressing hKv3.1b; for ECdelta5mV: concentration needed to shift the threshold 5 mV, read from fitted concentration response curve; for Max threshold shift: maximum absolute shift of activation threshold to more hyperpolarized potentials at tested concentrations (0.37, 1.11, 3.33, 10, 30 μM). As for the experimental part: HEK-293 cells stably expressing hKv3.1b was used for the experiments. Cells were cultured in DMEM medium supplemented with 10% Fetal Bovine Serum, 100 ug/mL Geneticidin and 100 u/mL Penicillin/Streptomycin (all from Gibco). Cells were grown to 80-90% confluency at 37° C. and 5% CO2. On the day of the experiment the cells were detached from the tissue culture flasks by Detachin and resuspended in serum free medium containing 25 mM HEPES and transferred to the cell hotel of the QPatch. The cells were used for experiments 0-5 hours after detachment.
Patch-clamp recordings were performed using the automated recording system QPatch-16× (Sophion Bioscience, Denmark). Cells were centrifuged, SFM removed and the cells were resuspended in extracellular buffer containing (in mM): 145 NaCl, 4 KCl, 1 MgCl2, 2 CaCl2, 10 HEPES and 10 glucose (added fresh on the day of experiment); pH 7.4 adjusted with NaOH, 305 mOsm adjusted with sucrose.
Single cell whole-cell recordings were carried out using an intracellular solution containing (in mM): 120 KCl, 32.25/10 KOH/EGTA, 5.374 CaCl2, 1.75 MgCl2, 10 HEPES, 4 Na2ATP (added fresh on the day), pH 7.2 adjusted with KOH, 395 mOsm adjusted with sucrose. Cell membrane potentials were held at −80 mV and currents were evoked by voltage steps (200 ms duration) from −70 mV to +10 mV (in 10 mV increments). Vehicle (0.33% DMSO) or increasing concentration of compound (1) were applied and the voltage protocol was run 3 times (resulting in 3 min cpd incubation time). Five increasing concentrations of compound (1) were applied to each cell.
Leak subtraction protocol was applied at −33% of the sweep amplitude, and serial resistance values were constantly monitored.
Any cell where serial resistance exceeded 25 MOhm, membrane resistance less than 200 MOhm or current size at −10 mV less than 200 pA was eliminated from the subsequent analysis.
Data analysis was performed using Sophion's QPatch assay software in combination with Microsoft Excel™ (Redmond, Wash., USA).
Current voltage relationships were plotted from the peak current at the individual voltage steps normalized to the vehicle addition at 10 mV. The voltage threshold for channel activation was defined as 5% activation of the peak current at 10 mV in presence of vehicle. The activity of the compounds was described as the ability to shift this current voltage relationship to more hyperpolarized potentials and is given as the maximum absolute shift possible at the tested concentrations (0.37, 1.11, 3.33, 10, 30 μM). Concentration response curves were plotted from the threshold shift at the individual concentrations and were fitted excel fit model 205 sigmodal dose-response model (fit=A+((B−A)/1+((C/x)^D)))), where A is the minimum value, B the maximum value, C the EC50 value and D the slope of the curve. The concentration needed to shift the threshold 5 mV was readout from this curve (ECdelta5 mV).
Background: The patch-clamp technique gives a direct electrical read-out from membranes.

Turning to `Cc1ccc(S(=O)(=O)c2ccc(C(=O)NCc3ccc(C)nn3)s2)cc1` [Compound 14, 5-(4-methylbenzene-1-sulfonyl)-N-[(6-methylpyridazin-3-yl)methyl]thiophene-2-carboxamide], the ECdelta5mV is given as 2000 nM and the Max threshold shift turned out to be 22 mV.
For `Cc1cnc(CNC(=O)c2ccc(S(=O)(=O)c3ccccc3)s2)cn1` [Compound 18, 5-(benzenesulfonyl)-N-[(5-methylpyrazin-2-yl)methyl]thiophene-2-carboxamide], in that order: 2400 nM and 17 mV.
